Data taken from patent publication US20190030049A1, “Celocoxib Binding Antibodies and Uses Thereof” (Marina Biotech, Inc., priority 2016, published 2019).

Assay: clinical
Settings: human, plasma

What does the source list for `Cc1ccc(-c2cc(C(F)(F)F)nn2-c2ccc(S(N)(=O)=O)cc2)cc1` [celecoxib, Celecoxib]?
AUC (100 mg): 3400 ng·h/mL; AUC (200 mg): 6800 ng·h/mL
